Laboratory results: patent US20060079453A1, “Hla binding peptides and their uses” (priority 2002, published 2006)
No end group written: not given here.

Target: HLA-DR DRB1*0901 (DR9) (Homo sapiens, UniProt P01903+P01911, A100R/A103E/D57H/D86V/F55Y/F60I/F76Y/I96F/K127E/L162R/M171V/P40D/Q125H/Q99R/R33Q/R42F/S133A/S66N/T210M/V115G/W38K/Y107V/Y59G/Y89S)
Assay: biochemical
Format: binding
Conditions: DRB1 *0901

Sequence	IC50 [µM]
LHKLQTYPRTNTGSG	> 29.2
NSLVYGASDSNIYDL	> 59.5
TSLTFSESIPTPSNR	2.46
SWLEPVQFLRSVFAN	4
VEALYLVCGERGSFY	6.31
VEALYLVTGERGFFY	0.683
VEALYLVCGERGFFY	2.23
FVNQHLCGSDLVEAL [FVNQHLCGSDLVEAL]	> 63
ICLLLIQSWLEPVQF	> 59.5
RSSNTQTQKLLWQLN	> 77.3
QHLTGSHLVEALYLV	42.3

Target: HLA-DR DRB1*0401 (DR4) (Homo sapiens, UniProt P01903+P01911, A100K/A169T/F76Y/I96L/K127E/L162R/M171V/N62H/P40V/Q125Y/R42H/S133A/S149N/S66Y/V115G/V209L/W38E)
Assay: biochemical
Format: binding
Conditions: DRB1 *0401

Sequence	IC50 [µM]
NSLVYGASDSNIYDL	0.24
TSLTFSESIPTPSNR	0.018
VEALYLVTGERGFFY	0.06
VEALYLVCGERGFFY	0.209
FVNQHLCGSDLVEAL [FVNQHLCGSDLVEAL]	19.2
ICLLLIQSWLEPVQF	11.3
RSSNTQTQKLLWQLN	2.14
QHLTGSHLVEALYLV	> 16.1

Target: HLA-DR DRB4*0101 (DR53) (Homo sapiens, UniProt P01903+P13762, G164S)
Assay: biochemical
Format: binding
Conditions: DRB4 *0101

Sequence	IC50 [µM]
LHKLQTYPRTNTGSG	22.9
NSLVYGASDSNIYDL	3.29
TSLTFSESIPTPSNR	3.48
VEALYLVTGERGFFY	0.013
VEALYLVCGERGFFY	0.03
FVNQHLCGSDLVEAL [FVNQHLCGSDLVEAL]	24.5
ICLLLIQSWLEPVQF	0.049
RSSNTQTQKLLWQLN	0.026

Target: HLA-DR DRB1*0405 (DR4) (Homo sapiens, UniProt P01903+P01911, A100R/A169T/D86S/F76Y/I96L/K127E/L162R/M171V/N62H/P40V/Q125Y/R42H/S133A/S149N/S66Y/V115G/V209L/W38E)
Assay: biochemical
Format: binding
Conditions: DRB1 *0405

Sequence	IC50 [µM]
LHKLQTYPRTNTGSG	> 7.4
NSLVYGASDSNIYDL	1.23
TSLTFSESIPTPSNR	0.686
SWLEPVQFLRSVFAN	0.883
VEALYLVCGERGSFY	6.11
VEALYLVTGERGFFY	2.34
VEALYLVCGERGFFY	1.04
FVNQHLCGSDLVEAL [FVNQHLCGSDLVEAL]	14.9
ICLLLIQSWLEPVQF	0.071
RSSNTQTQKLLWQLN	12.6
QHLTGSHLVEALYLV	7.42

Target: HLA-DR DRB3*0101 (DR52) (Homo sapiens, UniProt P01903+P79483)
Assay: biochemical
Format: binding
Conditions: not given

Sequence	IC50 [µM]
LHKLQTYPRTNTGSG	> 263
NSLVYGASDSNIYDL	31.6
TSLTFSESIPTPSNR	> 95.2
SWLEPVQFLRSVFAN	> 270
VEALYLVCGERGSFY	> 95.2
VEALYLVTGERGFFY	17.2
VEALYLVCGERGFFY	4.44
FVNQHLCGSDLVEAL [FVNQHLCGSDLVEAL]	10
ICLLLIQSWLEPVQF	188
RSSNTQTQKLLWQLN	0.751
QHLTGSHLVEALYLV	4.03

Target: HLA-DR DRB1*1302 (DR13) (Homo sapiens, UniProt P01903+P01911, A100E/A169T/K41T/L162R/M171V/P40S/Q125H/Q178H/Q39Y/Q99D/R42S/S66N/T262R/V115G/W38E/Y61H)
Assay: biochemical
Format: binding
Conditions: DRBI *1302

HLA-DR DRB1*1302 (DR13), sequence (P01903 26-254 limits assumed, other chains not shown): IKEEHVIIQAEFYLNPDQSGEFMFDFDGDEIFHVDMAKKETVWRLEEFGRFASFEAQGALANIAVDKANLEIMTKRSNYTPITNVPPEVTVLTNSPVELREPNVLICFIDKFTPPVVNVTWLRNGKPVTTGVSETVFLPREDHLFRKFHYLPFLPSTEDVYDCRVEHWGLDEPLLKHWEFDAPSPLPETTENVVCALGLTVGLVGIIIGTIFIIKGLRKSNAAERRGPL

Sequence	IC50 [µM]
LHKLQTYPRTNTGSG	> 12.6
TSLTFSESIPTPSNR	0.016
SWLEPVQFLRSVFAN	4.32
VEALYLVCGERGSFY	4.29
VEALYLVCGERGFFY	4.4
FVNQHLCGSDLVEAL [FVNQHLCGSDLVEAL]	20.2
ICLLLIQSWLEPVQF	0.954
QHLTGSHLVEALYLV	6.86

Target: HLA-DR DRB1*0301 (DR3) (Homo sapiens, UniProt P01903+P01911, A100K/A102G/A103R/A169T/F55Y/I96L/K41T/L162R/M171V/P40S/Q125H/Q178H/Q39Y/R42S/S66N/T106N/T262R/W38E/Y61H)
Assay: biochemical
Format: binding
Conditions: not given

HLA-DR DRB1*0301 (DR3), sequence (P01903 26-254 limits assumed, other chains not shown): as above

Sequence	IC50 [µM]
LHKLQTYPRTNTGSG	> 205
NSLVYGASDSNIYDL	> 51.4
TSLTFSESIPTPSNR	17.4
SWLEPVQFLRSVFAN	167
VEALYLVCGERGSFY	9.97
VEALYLVTGERGFFY	2.01
VEALYLVCGERGFFY	17.6
FVNQHLCGSDLVEAL [FVNQHLCGSDLVEAL]	> 74.8
ICLLLIQSWLEPVQF	50.9
RSSNTQTQKLLWQLN	44.3
QHLTGSHLVEALYLV	50.3

Target: HLA-DR DRB1*1501 (DR15) (Homo sapiens, UniProt P01903+P01911)
Assay: biochemical
Format: binding
Conditions: DRBI *1501

Sequence	IC50 [µM]
LHKLQTYPRTNTGSG	0.157
NSLVYGASDSNIYDL	0.971
VEALYLVCGERGSFY	1.24
ICLLLIQSWLEPVQF	1.77
RSSNTQTQKLLWQLN	2.74
QHLTGSHLVEALYLV	0.184

Target: HLA-DR DRB1*0701 (DR7) (Homo sapiens, UniProt P01903+P01911, A100R/A102G/A103Q/D57E/D86V/E43K/F76Y/K127E/L162R/M171V/P40G/Q125H/Q99D/R33Q/R42Y/R54Q/S133A/S66F/T210M/V115G/Y107V/Y59L/Y89S)
Assay: biochemical
Format: binding
Conditions: DRB1 *0701

Sequence	IC50 [µM]
LHKLQTYPRTNTGSG	40.2
NSLVYGASDSNIYDL	0.297
SWLEPVQFLRSVFAN	0.589
VEALYLVCGERGSFY	6.49
VEALYLVTGERGFFY	0.195
VEALYLVCGERGFFY	3.87
ICLLLIQSWLEPVQF	0.643
RSSNTQTQKLLWQLN	27.7
QHLTGSHLVEALYLV	0.038

Target: HLA-DR DRB1*0802 (DR8) (Homo sapiens, UniProt P01903+P01911, A100R/A103L/A169T/F76Y/H45Y/I96F/K41T/L162R/M171V/P40S/Q125H/Q178H/Q39Y/Q99D/R218S/R42G/S66Y/V115G/W38E)
Assay: biochemical
Format: binding
Conditions: not given

Sequence	IC50 [µM]
LHKLQTYPRTNTGSG	1.62
NSLVYGASDSNIYDL	> 33.3
TSLTFSESIPTPSNR	17.6
SWLEPVQFLRSVFAN	3.42
VEALYLVCGERGSFY	> 54.4
VEALYLVTGERGFFY	1.22
VEALYLVCGERGFFY	24.6
FVNQHLCGSDLVEAL [FVNQHLCGSDLVEAL]	> 54.4
ICLLLIQSWLEPVQF	> 33.3
RSSNTQTQKLLWQLN	1.28
QHLTGSHLVEALYLV	> 54.4

Target: HLA-DR DRB1*0101 (DR1) (Homo sapiens, UniProt P01903+P01911, A100R/D57E/F55L/F60I/F76Y/I96L/L162R/M171V/P40L/Q125E/R42F/V115G/Y59C)
Assay: biochemical
Format: binding
Conditions: DRB1 *0101

Sequence	IC50 [µM]
LHKLQTYPRTNTGSG	2.12
SWLEPVQFLRSVFAN	0.011
VEALYLVCGERGSFY	0.088
VEALYLVTGERGFFY	0.0099
VEALYLVCGERGFFY	0.076
FVNQHLCGSDLVEAL [FVNQHLCGSDLVEAL]	0.117
RSSNTQTQKLLWQLN	10.5
QHLTGSHLVEALYLV	0.0093

Target: HLA-DR DRB1*1101 (DR11) (Homo sapiens, UniProt P01903+P01911, A100R/A169T/A87E/I96F/K41T/L162R/M171V/P40S/Q125H/Q178H/Q39Y/Q99D/R42S/S66Y/T262R/V115G/W38E)
Assay: biochemical
Format: binding
Conditions: DRB1 *1101

HLA-DR DRB1*1101 (DR11), sequence (P01903 26-254 limits assumed, other chains not shown): as above

Sequence	IC50 [µM]
LHKLQTYPRTNTGSG	6.09
NSLVYGASDSNIYDL	> 15.4
TSLTFSESIPTPSNR	22.2
VEALYLVCGERGSFY	> 10.5
VEALYLVTGERGFFY	4.86
VEALYLVCGERGFFY	3.56
FVNQHLCGSDLVEAL [FVNQHLCGSDLVEAL]	> 1110
ICLLLIQSWLEPVQF	> 15.4
RSSNTQTQKLLWQLN	> 42.6
QHLTGSHLVEALYLV	> 10.5

Target: HLA-DR DRB5*0101 (DR51) (Homo sapiens, UniProt P01903+Q30154)
Assay: biochemical
Format: binding
Conditions: DRB5 *0101

Sequence	IC50 [µM]
LHKLQTYPRTNTGSG	0.04
NSLVYGASDSNIYDL	> 9.51
TSLTFSESIPTPSNR	> 1.34
SWLEPVQFLRSVFAN	4.81
VEALYLVCGERGSFY	0.804
VEALYLVTGERGFFY	0.078
VEALYLVCGERGFFY	25.5
FVNQHLCGSDLVEAL [FVNQHLCGSDLVEAL]	> 43.3
ICLLLIQSWLEPVQF	> 9.51
RSSNTQTQKLLWQLN	8.55
QHLTGSHLVEALYLV	23.7
